Data as given in patent US9000175B2, “Bicyclic GPR119 modulators” (Lupin Limited, priority 2010, dated 2015).
pEC50: −log10 of the molar value.

Target: T1, human GPR119 (Homo sapiens, UniProt Q8TDV5)
T1 construct: expressed in transfected cells
T1 sequence (Q8TDV5 1-335): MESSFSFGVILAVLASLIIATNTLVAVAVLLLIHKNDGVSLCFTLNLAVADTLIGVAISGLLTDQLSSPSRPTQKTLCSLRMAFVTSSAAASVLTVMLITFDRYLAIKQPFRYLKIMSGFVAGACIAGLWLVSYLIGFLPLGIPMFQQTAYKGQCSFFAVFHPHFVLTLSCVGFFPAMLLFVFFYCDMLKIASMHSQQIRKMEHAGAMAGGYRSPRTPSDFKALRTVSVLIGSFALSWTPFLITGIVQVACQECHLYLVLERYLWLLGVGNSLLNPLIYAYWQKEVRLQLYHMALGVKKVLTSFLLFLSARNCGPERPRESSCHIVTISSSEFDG
Test: Cyclic AMP assay in stable cell line
Type: cell-based
Conditions: CHO-K1 cells stably transfected with human GPR119; cAMP levels (FRET, cAMP femto kit); 1 h at 37° C; read-out: EC50 Range
Method: Cyclic AMP Assay in Stable Cell Line:
Chinese Hamster Ovary (CHO-K1) cells were stably transfected with human GPR119 and were maintained in Ham's F-12 complete medium containing 10% heat inactivated FBS (Sigma, UK). The cells were maintained under a selection pressure with 500 μg/ml G418 (GENETICIN). Stable clones were analyzed for functional cAMP response to OEA (oleoylethanolamide).
To estimate activation of GPR119 and induction of cAMP levels by GPR119 agonists, cells were serum starvation for 18-24 h, trypsinized and seeded in 96 well plates at a, density of 7500 cells/well. The cells were then treated with test compounds diluted in serum free Ham's F12 for 1 h at 37° C. The cAMP levels were measured by using the cAMP femto kit (CisBio) by following the manufacturer's instructions. Following treatment with a test compound, the cells were lysed and cAMP levels were estimated by adding D2-labelled cAMP and europium-cryptate conjugated anti-cAMP antibody. Close proximity of D2 and cryptate results in FRET and the subsequent fluorescence that is measured at 665 and 620 nm. The FRET response is calculated as the ratio of fluorescence at 665 to fluorescence at 620 nm. The unlabelled cAMP produced as a result of GPR119 activation/agonism competes with the D2-cAMP leading to a decrease in the FRET signal. Thus the FRET signal is inversely proportional to the amount of cAMP produced by the treated cells. In a separate set of wells, known concentrations of cAMP were added in order to get a standard linear curve for extrapolation of the cAMP values in the unknown/test samples. Fluorescence was measured on BMG Labtech PHERAstar machine.
The concentration of compound required to stimulate a half-maximal response (EC50) was determined using the GraphPad Prism software.
The compounds prepared were tested using the above assay procedure and the results obtained are given below.

How did the pEC50 turn out when CCc1cnc(N2CCC(Oc3ccc(-n4ccc5cc(C(=O)NC)ccc54)nc3)CC2)nc1 [Example-63, 1-(5-((1-(5-Ethylpyrimidin-2-yl)piperidin-4-yl)oxy)pyridin-2-yl)-N-methyl-1H-indole-5-carboxamide] was run?
The pEC50 was > 7.30.

With CCc1cnc(N2CCC(Nc3ccc(-n4ccc5cc(S(C)(=O)=O)ccc54)nc3)CC2)nc1 [Example-119, N-(1-(5-Ethylpyrimidin-2-yl)piperidin-4-yl)-6-(5-(methylsulfonyl)-1H-indol-1-yl)pyridin-3-amine] as the compound, how does the pEC50 read?
Its pEC50 is 6.60 to 7.30.

How did the pEC50 turn out when CC(C)(C)OC(=O)N1CCC(Oc2ccc(-n3ccc4cc(S(C)(=O)=O)ccc43)nc2)CC1 [Example-1, tert-Butyl-4-((6-(5-(methylsulfonyl)-1H-indol-1-yl)pyridin-3-yl)oxy) piperidine-1-carboxylate] was run?
Its pEC50 is > 7.30.

CCOC(=O)N1CCC(Oc2ccc(-n3ccc4cc(-n5cnnn5)ccc43)nc2)CC1 [Example-187, Ethyl-4-((6-(5-(1H-tetrazol-1-yl)-1H-indol-1-yl)pyridin-3-yl)oxy)-piperidine-1-carboxylate] was tested. Which pEC50 did it give?
The pEC50 was > 7.30.

How did the pEC50 turn out when CCc1cnc(N2CCC(Oc3ccc(-n4cc(C)c5cc(S(C)(=O)=O)ccc54)nc3)CC2)nc1 [Example-168, 1-(5-((1-(5-Ethylpyrimidin-2-yl)piperidin-4-yl)oxy)pyridin-2-yl)-3-methyl-5-(methylsulfonyl)-1H-indole] was run?
Its pEC50 is > 7.30.

With CCOC(=O)Nc1ccc2c(ccn2-c2ccc(OC3CCN(C(=O)OC(C)(C)C)CC3)cn2)c1 [Example-8, tert-Butyl-4-((6-(5-((ethoxycarbonyl)amino)-1H-indol-1-yl)pyridin-3-yl)oxy)piperidine-1-carboxylate] as the compound, how does the pEC50 read?
The pEC50 was > 7.30.

With Cc1noc(N2CCC(OCc3ccc(-n4ccc5cc(S(C)(=O)=O)ccc54)nc3)CC2)n1 [Example-112, 3-Methyl-5-(4-((6-(5-(methylsulfonyl)-1H-indol-1-yl)pyridin-3-yl)methoxy)piperidin-1-yl)-1,2,4-oxadiazole] as the compound, how does the pEC50 read?
The pEC50 was 6.00 to 6.60.

With CCc1cnc(N2CCC(COc3ccc(-n4ccc5cc(C(=O)NC)ccc54)nc3)CC2)nc1 [Example-67, 1-(5-((1-(5-Ethylpyrimidin-2-yl)piperidin-4-yl)methoxy)pyridin-2-yl)-N-methyl-1H-indole-5-carboxamide] as the compound, how does the pEC50 read?
Its pEC50 is 6.60 to 7.30.

How did the pEC50 turn out when CC(C)OC(=O)N1CCC(OCc2ccc(-n3ccc4cc(S(C)(=O)=O)ccc43)nc2)CC1 [Example-108, Isopropyl 4-((6-(5-(methylsulfonyl)-1H-indol-1-yl)pyridin-3-yl)methoxy)piperidine-1-carboxylate] was run?
The pEC50 was 6.60 to 7.30.

CCc1cnc(N2CCC(Oc3ccc(-n4ccc5cc(-c6nc(C(C)C)no6)ccc54)nc3)CC2)nc1 [Example-100, 5-(1-(5-((1-(5-Ethylpyrimidin-2-yl)piperidin-4-yl)oxy)pyridin-2-yl)-1H-indol-5-yl)-3-isopropyl-1,2,4-oxadiazole] was tested. Which pEC50 did it give?
The pEC50 was 6.00 to 6.60.

CC(C)(C)OC(=O)N1CCC(OCc2ccc(N3CCc4cc(S(C)(=O)=O)ccc43)nc2)CC1 [Example-46, tert-Butyl-4-((6-(5-(methylsulfonyl)indolin-1-yl)pyridin-3-yl)methoxy) piperidine-1-carboxylate] was tested. Which pEC50 did it give?
Its pEC50 is > 7.30.

CCc1cnc(N2CCC(OCc3ccc(N4CCc5cc(S(C)(=O)=O)ccc54)nc3)CC2)nc1 [Example-113, 1-(5-(((1-(5-Ethylpyrimidin-2-yl)piperidin-4-yl)oxy)methyl)pyridin-2-yl)-5-(methylsulfonyl)indoline] was tested. Which pEC50 did it give?
Its pEC50 is 6.00 to 6.60.

CC(C)OC(=O)N1CCC(Oc2ccc(-n3ccc4cc(C(=O)N5CCCC5)ccc43)nc2)CC1 [Example-70, Isopropyl 4-((6-(5-(pyrrolidine-1-carbonyl)-1H-indol-1-yl)pyridin-3-yl)oxy)piperidine-1-carboxylate] was tested. Which pEC50 did it give?
Its pEC50 is 6.60 to 7.30.

CC(C)OC(=O)N1CCC(Oc2ccc(-n3ccc4cc(S(C)(=O)=O)ccc43)nc2)CC1 [Example-169, Isopropyl 4-((6-(5-(methylsulfonyl)-1H-indol-1-yl)pyridin-3-yl)oxy) piperidine-1-carboxylate] was tested. Which pEC50 did it give?
The pEC50 was > 7.30.

How did the pEC50 turn out when CC(C)(C)OC(=O)N1CCC(Oc2ccc(-n3ccc4cc(CO)ccc43)nc2)CC1 [Example-94, tert-Butyl-4-((6-(5-(hydroxymethyl)-1H-indol-1-yl)pyridin-3-yl)oxy)piperidine-1-carboxylate] was run?
The pEC50 was 6.00 to 6.60.

How did the pEC50 turn out when CCOC(=O)N1CCC(OCc2ccc(-n3ccc4cc(S(C)(=O)=O)ccc43)nc2)CC1 [Example-107, Ethyl 4-((6-(5-(methylsulfonyl)-1H-indol-1-yl)pyridin-3-yl)methoxy) piperidine-1-carboxylate] was run?
Its pEC50 is 6.00 to 6.60.

Tested on: C57 BL/6J mice
Test: Oral glucose tolerance test
Type: in vivo
Conditions: blood glucose delta AUC; male C57 BL/6J mice fasted 16 h; 10 mg/kg oral gavage 30 min before glucose bolus 3 g/kg; 20-120 min
Method: Oral Glucose Tolerance Test:
9-10 weeks old male C57 BL/6J mice were maintained on a regular chow diet. The day of the experiment mice were fasted for 16 h and then randomized in to groups (n=7-8) based on blood glucose and bodyweight to receive vehicle (80% PEG400, 10% Tween80, 10% Ethanol) or test compounds (at 10 mg/kg). Vehicle or test compounds were delivered via oral gavage at 10 ml/kg volume. Thirty minutes later, the mice were dosed orally with a glucose bolus (3 g/kg) at 10 ml/kg volume. Blood glucose measurements were taken at 20, 40, 60 and 120 minutes after glucose administration by glucometer (CONTOUR TS, Bayer). Total AUC and Delta AUC were calculated by using graph pad prism (5.0).

How did the “% reduction in delta AUC at 10 mg/kg” value turn out when CCOC(=O)Nc1ccc2c(ccn2-c2ccc(OC3CCN(c4nc(CC)no4)CC3)cn2)c1 [Example-142, Ethyl(1-(5-((1-(3-ethyl-1,2,4-oxadiazol-5-yl)piperidin-4-yl)oxy)pyridin-2-yl)-1H-indol-5-yl)carbamate] was run?
Its value is 35%.

With CCc1cnc(N2CCC(Oc3ccc(-n4ccc5cc(C(=O)NC)ccc54)nc3)CC2)nc1 [Example-63, 1-(5-((1-(5-Ethylpyrimidin-2-yl)piperidin-4-yl)oxy)pyridin-2-yl)-N-methyl-1H-indole-5-carboxamide] as the compound, how does the “% reduction in delta AUC at 10 mg/kg” value read?
Its value is 28%.

Same assay, conditions: blood glucose total AUC; male C57 BL/6J mice fasted 16 h; 10 mg/kg oral gavage 30 min before glucose bolus 3 g/kg; 20-120 min

With CCOC(=O)Nc1ccc2c(ccn2-c2ccc(OC3CCN(c4nc(CC)no4)CC3)cn2)c1 [Example-142, Ethyl(1-(5-((1-(3-ethyl-1,2,4-oxadiazol-5-yl)piperidin-4-yl)oxy)pyridin-2-yl)-1H-indol-5-yl)carbamate] as the compound, how does the “% reduction in total AUC at 10 mg/kg” value read?
The value was 20%.

Which “% reduction in total AUC at 10 mg/kg” value does the source give for CCc1cnc(N2CCC(Oc3ccc(-n4ccc5cc(C(=O)NC)ccc54)nc3)CC2)nc1 [Example-63, 1-(5-((1-(5-Ethylpyrimidin-2-yl)piperidin-4-yl)oxy)pyridin-2-yl)-N-methyl-1H-indole-5-carboxamide] here?
Its value is 19%.
